Test results: publication PMC7906907, “Targeting STAT3 by a small molecule suppresses pancreatic cancer progression” (Oncogene, 2021)

How the values were obtained:
Format in all cases: cell-based
[1] = target: T1, STAT3–EGFR interaction (Homo sapiens, UniProt P40763); test: Co-immunoprecipitation, STAT3–EGFR interaction; details: PANC-1 cells, 2 μM, 24 h
T1 construct: endogenous in cells; host or cells: PANC-1
Text: Fig. 3 N4 interacts with the STAT3-SH2 domain and interferes with the STAT3-EGFR and STAT3-NF-κB interactions. […] C–E The binding between N4 and STAT3 was examined in (C) SPR and (D) MST experiments. His-STAT3^127-722 protein was purified and used to examine the affinity between STAT3 and N4. (E) The binding between N4 and STAT3^SH2 was confirmed in MST assays. STAT3-SH2 protein was purified and labeled. N4 was serially diluted and mixed with equal volumes of labeled STAT3^SH2 protein. The MST signal was measured, and the data were analyzed by MO analysis software. F, G The FLAG-tag and HA-tag STAT3 expression plasmid was transfected into 293 T cells, followed by the addition of the indicated concentrations of N4. After 24 h, cells were lysed, and immunoprecipitation experiments were performed as described in Materials and Methods. H N4 represses STAT3 dimerization in pancreatic cancer cells. I After a 24 h treatment with 2 μM N4, pancreatic cancer cells were stimulated with IL-6 for 30 min. Cell lysates were immunoprecipitated with STAT3 overnight. The precipitates were washed, suspended in non-reducing sample buffer, and boiled for 10 min. The indicated antibodies were used for western blot assays. […]
Co-IP was performed as previously described. […] After overnight incubation, the precipitates were washed and analyzed using western blotting.

[2] = tested on: Pancreatic cancer cells (CAPAN-2, PANC-1, MIAPACA-2, BXPC-3, HPAC, and CFPAC-1); test: MTS proliferation assay, pancreatic cancer cells; details: 48 h
Method: (§1) Fig. 4 N4 suppresses pancreatic cancer cell proliferation and migration and induces apoptosis. A Pancreatic cancer cells (CAPAN-2, PANC-1, MIAPACA-2, BXPC-3, HPAC, and CFPAC-1) and normal cells (HPNE, HAF) were incubated with the indicated concentration of N4 for 48 h. MTS assays were performed to detect the N4-mediated inhibition of cell proliferation. Data are shown as mean ± SD, *P < 0.05, **P < 0.01, ***P < 0.001, ****P < 0.0001, n.s. not significant by one-way ANOVA followed by multiple comparisons. B, C CAPAN-2, PANC-1, and MIAPACA-2 cells were treated with N4 (B) or C188-9 (C) for 7 days. The cells fixed and stained, and colony numbers were calculated. Experiments were carried out in triplicate with identical results obtained. […] Apoptotic cells were analyzed as described in Materials and Methods. […] In F, after 48 h transfection, transfected cells were seeded in 96-well plates, and cells were enumerated at day 1, day 2, and day 4, In G, different cells transfected with different siRNA were treated with the indicated concentrations of N4, and cell viability measured after a 48 h treatment. Data are expressed as mean ± SD, *P < 0.05, ***P < 0.001, n.s. not significant by one-way ANOVA followed by multiple comparisons. […] Data are expressed as mean ± SD, *P < 0.05, ***P < 0.001, n.s. not significant; Student’s t tests were performed. […]

[3] = tested on: CAPAN-2, PANC-1, and MIAPACA-2 cells; test: Colony formation; details: 7 days
Method: as §1

T1 sequence (P40763 2-770 limits assumed): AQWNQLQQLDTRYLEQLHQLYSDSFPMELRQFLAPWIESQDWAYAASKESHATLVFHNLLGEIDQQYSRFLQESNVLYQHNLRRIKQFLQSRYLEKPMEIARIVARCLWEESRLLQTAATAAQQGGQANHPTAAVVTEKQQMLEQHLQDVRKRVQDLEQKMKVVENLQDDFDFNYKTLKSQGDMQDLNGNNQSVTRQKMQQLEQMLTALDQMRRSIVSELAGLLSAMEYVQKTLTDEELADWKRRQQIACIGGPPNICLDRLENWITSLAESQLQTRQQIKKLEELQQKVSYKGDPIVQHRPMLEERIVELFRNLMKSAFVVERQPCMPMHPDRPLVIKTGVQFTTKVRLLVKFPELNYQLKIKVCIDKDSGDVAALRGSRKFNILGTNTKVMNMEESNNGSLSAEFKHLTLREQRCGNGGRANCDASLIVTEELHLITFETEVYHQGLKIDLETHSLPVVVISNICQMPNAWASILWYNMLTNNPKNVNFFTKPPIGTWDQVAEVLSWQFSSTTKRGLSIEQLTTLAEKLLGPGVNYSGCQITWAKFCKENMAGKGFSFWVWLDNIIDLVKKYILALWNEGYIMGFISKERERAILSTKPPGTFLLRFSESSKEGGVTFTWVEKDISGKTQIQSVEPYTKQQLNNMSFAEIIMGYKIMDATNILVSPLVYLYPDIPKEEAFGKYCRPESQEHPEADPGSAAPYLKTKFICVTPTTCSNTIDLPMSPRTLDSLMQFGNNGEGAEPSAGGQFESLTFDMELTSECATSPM

COc1cc2c(cc1C(=O)Nc1cccc3cccnc13)CCC1C(C)(C)C(=O)C(C#N)=C[C@]21C (stereo partly drawn) [N4]
STAT3–EGFR interaction [1]: inhibited
proliferation of pancreatic cancer cells [2]: effectively inhibited
colony formation, compared with C188-9 and BP-1-102 [3]: more potently inhibited
